Measured values taken from patent US20160003837A1, “BIOMARKERS FOR THE PREDICTION OF PRETERM BIRTH” (DUKE UNIVERSITY, priority 2013, published 2016).

Tests used:
[1] = women with a history of spontaneous preterm birth; weekly intramuscular injection; cited from earlier work
[2] = tested on: Matrix Metalloprotease 9 (MMP-9) activity in HTR8/SVneo cells; assay: TNF-α-induced MMP-9 activity (zymography); type: cell-based; settings: for reduction of TNFα-induced MMP-9 activity compared to stimulated controls: MPA pre-treatment
Text: FIGS. 4A-4C show the effect of knocking down PGRMC1 expression on the efficacy of medroxyprogesterone acetate (MPA) pretreatment in HTR8/SVneo cells.
(§1) Progesterone treatment also blunted TNF α-mediated induction of metalloproteinase 9 (MMP-9) activity (data not shown).
The inhibitory effect of MPA pre-treatment on TNFα-induced activity was diminished when compared to cells treated with the scramble siRNA group (see FIGS. 4B&4C). […] However, in the PGRMC1 siRNA group this effect was lost with MPA pre-treatment reducing MMP-9 activity to a lesser degree when compared with stimulated controls (15%, p=0.100). Both the unstimulated (vehicle) control and the MPA groups are shown in the zymogram. The relative MMP-9 activity represents activity in excess of baseline for each experimental group. The unstimulated (vehicle) control only is represented graphically for both siRNA treatments. Experiments were replicated on 5 separate occasions. Data are mean+standard error of the mean.

[3] = women at risk based on shortened cervical length; vaginal; cited from earlier work
HTR8/Sv cells = assay: Calcimycin-induced apoptotic cell death, CELLTITER 96 Aqueous Non-Radioactive Cell Proliferation Assay; type: cell-based; settings: pretreatment of HTR8/Sv cells; FIG. 1
Text: FIGS. 1A-1B are A) Western blot and B) graph showing calcium-induced cytrotrophoblast apoptotic cell death reduction by progesterone (R5020) pretreatment.
as §1

caspase 3 cleavage = assay: Caspase 3 cleavage following treatment with calcimycin; type: cell-based; settings: data not shown
PGRMC1 = PGRMC1 (Homo sapiens, UniProt O00264); settings: cited from earlier work
PGRMC1, sequence (O00264 whole entry): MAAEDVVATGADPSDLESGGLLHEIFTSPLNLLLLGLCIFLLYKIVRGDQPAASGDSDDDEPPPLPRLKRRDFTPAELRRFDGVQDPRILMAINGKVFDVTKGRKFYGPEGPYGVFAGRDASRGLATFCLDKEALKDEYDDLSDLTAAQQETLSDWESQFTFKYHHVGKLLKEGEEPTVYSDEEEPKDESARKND

CCCCCC(=O)O[C@]1(C(C)=O)CC[C@H]2[C@@H]3CCC4=CC(=O)CC[C@]4(C)[C@H]3CC[C@@]21C [17-OHPC, 17 alpha hydroxyprogesterone caproate]
reduction in preterm birth rates [1]: 35%

CC(=O)O[C@]1(C(C)=O)CC[C@H]2[C@@H]3C[C@H](C)C4=CC(=O)CC[C@]4(C)[C@H]3CC[C@@]21C [MPA, medroxyprogesterone acetate]
reduction of TNFα-induced MMP-9 activity compared to stimulated controls ([2]; PGRMC1 siRNA group, p=0.100): 15% | reduction of TNFα-induced MMP-9 activity compared to stimulated controls ([2]; scramble siRNA group, p<0.008): 45%

CC(=O)[C@H]1CC[C@H]2[C@@H]3CCC4=CC(=O)CC[C@]4(C)[C@H]3CC[C@]12C [Progesterone, progesterone]
TNF α-mediated induction of MMP-9 activity ([2]; data not shown): blunted | reduction of the risk of preterm birth [3]: 45%

CCC(=O)[C@@]1(C)CC[C@H]2[C@@H]3CCC4=CC(=O)CCC4=C3CC[C@@]21C [R5020]
protection against calcium-ionophore calcimycin-induced apoptotic cell death (HTR8/Sv cells): protected the cells | caspase 3 cleavage following treatment with calcimycin (caspase 3 cleavage): lower caspase 3 cleavage | binding to PGRMC1 (PGRMC1): high binding
